According to PMC9078534 (RSC Advances, 2018):
Structures can show the parent of a compound that is named as a salt. Where two headings read alike, the source gives them in different places.

Legend:
[1] = Renal clearance (CLr) of SAL and PAH in hypoxic and normoxic rats; format: in vivo; conditions: rat, plasma and urine, iv
Procedure: The animal surgery was conducted as described in literature.[23,24] Briefly, the cannulae were inserted into rat right jugular veins, left femoral veins, and bladders after an i.m. injection of 90 mg kg^−1 ketamine and 9 mg kg^−1 xylazine. All surgical procedures were performed under anaesthesia and in a clean surgical room with sterilized instruments. […] Urine from the bladder was collected through the catheter into pre-weighed micro-centrifuge tubes and the volume of urine collected during each 30 min period was calculated by weight. To equilibrate and establish a steady rate of urine excretion, rats were continuously infused with warm saline solution containing mannitol (5%, w/v) for 1 h at a rate of 16 μl min^−1 through the femoral veins (n = 5 each group) using a Sage Instruments Syringe Pump (Cambridge, MA, USA). During the experiment, the rat was placed on a heating pad to maintain body temperature. […] After each blood sampling, an aliquot of 200 μl saline was infused into the jugular to replace the volume of blood taken.

[2] = Transport of SAL across normoxic and hypoxic Caco-2 monolayers (Papp); format: in vitro ADME, human; conditions: human, SAL 10 μM
Procedure: (§1) The human colorectal adenocarcinoma cell line, Caco-2 cell, was obtained from Cell Resource Center, Institute of Basic Medical Sciences (CAMS). Caco-2 cells, a recognized cell model used for permeability study, were cultured in minimum essential medium (MEM) containing 10% fetal bovine serum, 1% nonessential amino acids, 100 U ml^−1 penicillin, and 100 μg ml^−1 streptomycin, and then were kept in a humidified incubator at 37 °C with 5% CO2. To obtain differentiated monolayers, Caco-2 cells were seeded in Transwell® chambers (12 mm, 0.4 μm pore size; Corning, MA, USA) at a density of 1 × 10^5 cells per wells and cultured for 21 days. TEER (trans-epithelial electrical resistance) was used to monitor the integrity of the monolayer. Monolayer with TEER above 600 Ω cm^2 was employed in the present study. Caco-2 cells grown in Transwell® at passage 32–45 were used for the experiment. After cultivation for 21 days, normoxic incubations were performed in a tissue culture incubator at 37 °C, 5% CO2, while hypoxic incubations were performed in an oxygen-control hypoxic glove box at 37 °C, 1% oxygen content for 24 h.[15] The enzyme activities of LDH, CS and the protein expression of HIF-1α were monitored for hypoxic model validation. The morphological study on hypoxic Caco-2 monolayer was performed with the aid of transmission electron microscopy (TEM) (JEM-2100F, Japan). The expression level of tight junction proteins (ZO-1) in Caco-2 cell under normoxic and hypoxic conditions was measured by western blotting.
(§2) According to the method published in Nature Protocols, the transport test was performed in Hank's balanced salt solution (HBSS) containing 5.56 mM glucose, 10 mM HEPES and 1.26 mM CaCl2.[16] Before experiment, the monolayers were washed twice with HBSS medium and pre-incubated for 30 min. […] Equal volume of the blank HBSS buffer was added back to the chambers after sampling to maintain a constant systemic volume. The collected samples were stored at −20 °C until UPLC-MS/MS analyses.
(§3) The Caco-2 monolayer was pre-incubated with phlorizin (100 μM) for 30 min before the transport experiment.

Caco-2 monolayers = experiment: as above; format: in vitro ADME, human
Procedure: as §1, §2, §3

[3] = cited from earlier work
[4] = male, SD, rat, in vivo
Source text: (§4) Briefly, rats were exposed to hypoxic condition (oxygen content of 9%) for 3 consecutive days to construct the model. Normoxic controls were kept in room air (21% O2) for 3 consecutive days. The concentrations of LDH, CS, and HIF-1α in rat plasma were monitored with the aid of commercial kit listed in ‘Material’ section for model validation.
(§5) Twenty male SD rats were randomly divided into hypoxic group (HYP) and normoxic group (NOR) with ten rats in each group. Following hypoxic and normoxic model construction, rats were prepared for surgery. […] Briefly, rats were anesthetized with an intramuscular dose of ketamine (90 mg kg^−1) and xylazine (9 mg kg^−1) followed by cannulation with a polythene tube (0.5 mm i.d., 1 mm, Portex Ltd., Hythe, Kent, England) in the right jugular vein. The rats were allowed to recover overnight and had free access to water and food. […] The blood samples (200 μl) were taken from the jugular vein catheter and were collected into the heparinized tubes at the following time points: 0, 5, 10, 30, 60, 120, 240, 360, 480, 720 and 1440 min after oral administration and 0, 2, 5, 10, 30, 60, 120, 240, 360, 480 min after intravenous administration, respectively. An aliquot of 200 μl sterile isotonic saline was given immediately to rats after blood sample collection for compensation of body fluid loss. The animals were sacrificed with pentobarbital sodium salt (200 mg kg^−1, i.p.) at the end of the experiment. The obtained blood samples were centrifuged at 11 300g for 5 min at 4 °C and the plasma samples (supernatant) was collected for UPLC-MS/MS analyses. Protein precipitation was adopted for samples preparation.
(§6) Pharmacokinetic parameters including the area under the curve (AUC) and elimination half-life (t1/2) were calculated by non-compartmental model. The peak plasma concentration (Cmax) and the time for reaching Cmax (Tmax) were obtained directly from the experimental data.

[5] = Protein binding of SAL in rat plasma by ultrafiltration; format: in vitro ADME; conditions: three spiking concentrations (100, 500, 1000 μg ml^−1), 37 °C, 30 min
Procedure: After incubation at 37 °C for 30 min, an aliquot of 500 μl plasma was added into the upper part of the centrifugal filter device (Amicon®, cutoff value: 10 kDa). The centrifuge was then conducted in a rate of 11 300g for 30 min at room temperature. SAL in the original sample and ultrafiltrate were determined by UPLC-MS/MS method.

in vivo = conditions: male, SD, rat
Source text: as §4, §5, §6

[6] = Stability of SAL in samples during UPLC-MS/MS method validation; format: physicochemical
Procedure: To prepare the samples for calibration curves, 10 μl of IS working solution (containing 100 μg ml^−1 paracetamol) and 10 μl of analyte work solution was added to 100 μl of blank rat plasma. Approximately 300 μl methanol was then added to the above plasma sample for protein precipitation. After centrifuging the mixture at 11 300g for 10 min, the supernatant was collected followed by being evaporated to dryness under nitrogen at room temperature. The residue was reconstituted with 100 μl of methanol. After being centrifuged at 11 300g for 10 min, an aliquot of 5 μl supernatant was injected into the UPLC-MS/MS system for analyses. […] For all QC samples in rat biological matrices, the % RSD of both intra-day and inter-day precision was below 10.4%, and the accuracy was within the range of 85.4 to 100%, which met the criteria from FDA.

SULT2A1 = experiment: Kinetics of p-tyrosol sulfate formation from p-tyrosol in rat liver S9 fraction (RLS), sulfation by SULT2A1; format: in vitro ADME
Procedure: The formation rate of p-tyrosol sulfate could therefore serve as an indicator for the hepatic metabolic rate of SAL. […] The incubation was carried out at 37 °C and terminated by the addition of an equal volume of ice-cold methanol containing 5 μM IS.[18] The content of p-tyrosol sulfate was determined by the UPLC-MS/MS described above. […] All the experiments were carried out in triplicate.
GraphPad Prism® was employed to analyze enzyme kinetic data.

CBG = test system: CBG; design: method as in doi:10.1021/symposium; conditions: other phenolic glycosides; cited from earlier work
[7] = substrate: OC[C@H]1O[C@@H](OCCc2ccc(O)cc2)[C@H](O)[C@@H](O)[C@@H]1O; experiment: cells, lysate or membranes named; conditions: pH 7.4, 37.0 °C
[8] = Caco-2, hypoxic Caco-2 monolayer model (1% O2, 24 h)
[9] = Caco-2, normoxic Caco-2 monolayer model
[10] = background statement, no reference given

## Nc1ccc(C(=O)NCC(=O)O)cc1 [PAH, p-aminohippuric acid, reference compound]
[1]; 30 mg/kg, hypoxic rats, PAH 30 mg kg^−1 i.v. bolus
  CL renal: 0.818 mL/min/kg
[1]; 30 mg/kg, normoxic rats, PAH 30 mg kg^−1 i.v. bolus
  CL renal: 3.28 mL/min/kg

## OC[C@H]1O[C@@H](OCCc2ccc(O)cc2)[C@H](O)[C@@H](O)[C@@H]1O [SAL, salidroside]
[2]; [8]
  Papp A→B at 180 min, 10 μM: 1.77 ± 0.18 ×10⁻⁶ cm/s
  Papp B→A at 180 min, 10 μM: 0.7 ± 0.2 ×10⁻⁶ cm/s
[2]; [9]
  Papp A→B at 180 min, 10 μM: 0.88 ± 0.11 ×10⁻⁶ cm/s
  Papp B→A at 180 min, 10 μM: 0.088 ± 0.02 ×10⁻⁶ cm/s
Caco-2 monolayers; hypoxic Caco-2 monolayer model
  ratio between Papp(A→B) and Papp(B→A): 2.53
Caco-2 monolayers; normoxic Caco-2 monolayer model
  ratio between Papp(A→B) and Papp(B→A): 10.0
Caco-2 monolayers; normoxic Caco-2 monolayer model, after addition of SGLT1 inhibitor (phlorizin 100 μM)
  ratio between Papp(A→B) and Papp(B→A): 2.24
[1]; 444 ug/kg, hypoxic rats, SAL 444 μg kg^−1 i.v. bolus
  CL renal: 0.497 mL/min/kg
[1]; 444 ug/kg, normoxic rats, SAL 444 μg kg^−1 i.v. bolus
  CL renal: 1.77 mL/min/kg
[3]; after oral administration to rats, literature and preliminary studies
  share of parent compound that undergoes deglycosylation and sulfation: more than 50%
[3]; [10]
  share of administered SAL excreted from urine as parent compound: about 20%
  share of eliminated SAL accounted for by renal clearance: no more than 20%
[4]; iv, 444 ug/kg
  MRT(0→t): 70.9 ± 7.9 min
  t1/2: 97.5 ± 12.5 min
[4]; po, 4.44 mg/kg
  Cmax: 1835.4 ± 690.5 ng/mL
  Tmax: 48.0 ± 16.4 min
[5]
  plasma binding ratio, hypoxic versus normoxic rats: similar
In vivo; iv, 444 ug/kg, MRT(0→t)
  MRT last: 48.3 min
In vivo; iv, 444 ug/kg, t1/2
  half-life: 67.2 ± 11.8 min
In vivo; po, 4.44 mg/kg, Cmax
  Cmax: 2070 ± 264 ng/mL
In vivo; po, 4.44 mg/kg, Tmax
  Tmax: 36 min
[6]; auto-sampler (4 °C) for 24 h
  stability: stable
[6]; −80 °C for 30 days
  stability: stable

## O=S(=O)(O)Oc1ccc(CCO)cc1 [p-Tyrosol sulfate, p-tyrosol sulfate]
[3]; rats, systemic circulation
  share of total metabolites of SAL: over 50%

## OCCc1ccc(O)cc1 [p-tyrosol]
SULT2A1; hypoxic RLS
  Clint of SULT2A1: 10.4 ± 2.7 µL/min/mg
  Vmax of SULT2A1 (p-tyrosol sulfate formation from p-tyrosol): 78.3 ± 11.2 nmol/min/mg
SULT2A1; normoxic RLS
  Clint of SULT2A1: 5.8 ± 1.2 µL/min/mg
  Vmax of SULT2A1 (p-tyrosol sulfate formation from p-tyrosol): 23.3 ± 4.4 nmol/min/mg

## daidzein 4-glycoside
CBG
  Km: 50 µM

## quercetin 4-glycoside
CBG
  Km: 65 µM

B1: cytosolic β-glucosidase (CBG) (Rattus norvegicus) (protein)
chain: MAFPVGFGWGAATAAYQVEGGWDADGRGPCVWDTFTHQGGERVFENQTGDVACGSYTLWEEDLKCIKQLGLTHYRFSLSWSRLLPDGTTGFINQKGIDYYNKIIDDLLKNGVTPIVAIYHFDLPQALEDLGGWLSEAIVEAFDKYAQFCFSTFGDRVKQWLTINEPNILALLAYDMGIFAPGVPHIGIGGYQAAHNLIKAHARSWHSYDSLFREEQKGFVSLSLFFCWLEPADPNSEIDQEATKRAINFHLDFFAKPIFIDGDYPDVVKSQVASMSKKQGYPSSRLPEFTEEEKKMIKGTADFFAVQYYTTRLVRHQENKKRELGFLQDVEIEFFPNPFWKNVGWIYVVPWGIRKLLKYIKDTYNNPVIYITENGFPQCDPPSLDDTQRWEYFRQTFQELFKAIHVDDVNLQLYCAWSLLDNFEWNNGYSRRFGLFHVDFEDPARPRTPYRSAKEYAKVIRDNGLAGAM
[7]; other: hypoxic RLS
  Km: 19.5 ± 3.1 µM
[7]; other: normoxic RLS
  Km: 5.2 ± 0.6 µM
